This note sets out measurements from publication PMC12406203 (Journal of Medicinal Chemistry, 2025).

Assay in all cases: KINOMEscan
Common to all, as to assay type: binding

One experiment has as its target T1, YANK3 (Homo sapiens, UniProt Q86UX6).
T1 construct: purchased Eurofins DiscoverX, LLC; host or cells: E. coli BL21-derived host (T7 phage) or HEK-293

The next experiment deals with T2, PRKCE (Homo sapiens, UniProt Q02156).
T2 construct: purchased Eurofins DiscoverX, LLC; host or cells: E. coli BL21-derived host (T7 phage) or HEK-293
T2 sequence (Q02156 1-737): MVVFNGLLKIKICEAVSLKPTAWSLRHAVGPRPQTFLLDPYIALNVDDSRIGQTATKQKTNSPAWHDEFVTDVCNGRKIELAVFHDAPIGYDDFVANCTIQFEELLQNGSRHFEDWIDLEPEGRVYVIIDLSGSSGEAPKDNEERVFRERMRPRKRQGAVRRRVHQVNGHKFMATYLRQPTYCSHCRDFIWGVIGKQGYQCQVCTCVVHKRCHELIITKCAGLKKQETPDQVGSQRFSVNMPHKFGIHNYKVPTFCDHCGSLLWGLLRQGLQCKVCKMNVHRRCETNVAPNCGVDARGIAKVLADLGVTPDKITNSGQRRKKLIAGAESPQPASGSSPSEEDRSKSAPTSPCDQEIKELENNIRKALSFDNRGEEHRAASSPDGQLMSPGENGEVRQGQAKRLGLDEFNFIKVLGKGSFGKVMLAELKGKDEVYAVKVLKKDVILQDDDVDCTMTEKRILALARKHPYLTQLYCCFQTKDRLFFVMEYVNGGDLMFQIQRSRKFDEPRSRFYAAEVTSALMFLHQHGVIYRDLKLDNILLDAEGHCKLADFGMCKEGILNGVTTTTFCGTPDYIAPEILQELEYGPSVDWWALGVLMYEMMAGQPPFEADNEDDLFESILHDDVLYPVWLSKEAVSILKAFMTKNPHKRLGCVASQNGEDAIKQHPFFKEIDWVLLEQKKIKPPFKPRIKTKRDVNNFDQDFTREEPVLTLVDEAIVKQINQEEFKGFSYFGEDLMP

A further experiment deals with T3, FLT3 (Homo sapiens, UniProt P36888).
T3 construct: purchased Eurofins DiscoverX, LLC; host or cells: E. coli (T7 phage) or HEK-293
T3 sequence (P36888 27-993): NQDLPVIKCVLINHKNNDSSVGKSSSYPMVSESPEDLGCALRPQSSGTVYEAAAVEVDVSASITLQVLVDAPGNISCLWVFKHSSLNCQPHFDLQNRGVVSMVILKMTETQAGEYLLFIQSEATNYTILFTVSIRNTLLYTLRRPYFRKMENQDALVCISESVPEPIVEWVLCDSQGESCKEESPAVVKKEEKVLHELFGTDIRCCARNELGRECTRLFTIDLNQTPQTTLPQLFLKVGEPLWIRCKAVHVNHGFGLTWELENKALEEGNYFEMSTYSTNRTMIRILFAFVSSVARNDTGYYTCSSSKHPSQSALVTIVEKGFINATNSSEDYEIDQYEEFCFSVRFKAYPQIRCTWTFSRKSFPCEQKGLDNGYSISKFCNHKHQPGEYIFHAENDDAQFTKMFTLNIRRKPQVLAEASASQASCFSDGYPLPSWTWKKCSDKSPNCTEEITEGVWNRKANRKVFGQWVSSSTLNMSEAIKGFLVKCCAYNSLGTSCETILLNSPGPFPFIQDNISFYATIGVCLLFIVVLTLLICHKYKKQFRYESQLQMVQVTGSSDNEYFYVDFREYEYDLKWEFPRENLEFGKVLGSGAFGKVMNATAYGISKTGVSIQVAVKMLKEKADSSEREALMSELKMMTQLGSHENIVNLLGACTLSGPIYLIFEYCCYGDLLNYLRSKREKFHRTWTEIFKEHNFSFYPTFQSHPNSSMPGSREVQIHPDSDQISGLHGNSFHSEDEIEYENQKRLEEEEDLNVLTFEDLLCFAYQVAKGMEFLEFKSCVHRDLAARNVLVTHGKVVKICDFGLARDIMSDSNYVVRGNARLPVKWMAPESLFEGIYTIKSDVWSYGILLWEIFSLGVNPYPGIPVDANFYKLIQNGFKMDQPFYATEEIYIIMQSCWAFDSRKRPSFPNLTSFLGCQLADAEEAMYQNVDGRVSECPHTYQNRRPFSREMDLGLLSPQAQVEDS

For the next experiment, the target named is T4, MEK2 (Homo sapiens, UniProt P36507).
T4 construct: purchased Eurofins DiscoverX, LLC; host or cells: E. coli (BL21-derived, T7 phage) or HEK-293

The next experiment has as its target T5, KIT (Homo sapiens, UniProt P10721).
T5 construct: purchased Eurofins DiscoverX, LLC; host or cells: E. coli (BL21-derived, T7 phage) or HEK-293

In experiment [1] the target is T6, RSK2 (Kin.Dom.1-N-terminal) (Homo sapiens, UniProt P51812).
T6 construct: RSK2 (Kin.Dom.1-; purchased Eurofins DiscoverX, LLC; host or cells: E. coli BL21-derived host (T7 phage) or HEK-293

A further experiment has as its target T7, EGFR(L858R) (Homo sapiens, UniProt P00533, L858R).
T7 construct: purchased Eurofins DiscoverX, LLC; host or cells: E. coli (T7 phage) or HEK-293

The next experiment concerns the target T8, PIK3CA (Homo sapiens, UniProt P42336).
T8 construct: purchased Eurofins DiscoverX, LLC; host or cells: E. coli BL21-derived host (T7 phage) or HEK-293

T5 sequence (P10721 26-976): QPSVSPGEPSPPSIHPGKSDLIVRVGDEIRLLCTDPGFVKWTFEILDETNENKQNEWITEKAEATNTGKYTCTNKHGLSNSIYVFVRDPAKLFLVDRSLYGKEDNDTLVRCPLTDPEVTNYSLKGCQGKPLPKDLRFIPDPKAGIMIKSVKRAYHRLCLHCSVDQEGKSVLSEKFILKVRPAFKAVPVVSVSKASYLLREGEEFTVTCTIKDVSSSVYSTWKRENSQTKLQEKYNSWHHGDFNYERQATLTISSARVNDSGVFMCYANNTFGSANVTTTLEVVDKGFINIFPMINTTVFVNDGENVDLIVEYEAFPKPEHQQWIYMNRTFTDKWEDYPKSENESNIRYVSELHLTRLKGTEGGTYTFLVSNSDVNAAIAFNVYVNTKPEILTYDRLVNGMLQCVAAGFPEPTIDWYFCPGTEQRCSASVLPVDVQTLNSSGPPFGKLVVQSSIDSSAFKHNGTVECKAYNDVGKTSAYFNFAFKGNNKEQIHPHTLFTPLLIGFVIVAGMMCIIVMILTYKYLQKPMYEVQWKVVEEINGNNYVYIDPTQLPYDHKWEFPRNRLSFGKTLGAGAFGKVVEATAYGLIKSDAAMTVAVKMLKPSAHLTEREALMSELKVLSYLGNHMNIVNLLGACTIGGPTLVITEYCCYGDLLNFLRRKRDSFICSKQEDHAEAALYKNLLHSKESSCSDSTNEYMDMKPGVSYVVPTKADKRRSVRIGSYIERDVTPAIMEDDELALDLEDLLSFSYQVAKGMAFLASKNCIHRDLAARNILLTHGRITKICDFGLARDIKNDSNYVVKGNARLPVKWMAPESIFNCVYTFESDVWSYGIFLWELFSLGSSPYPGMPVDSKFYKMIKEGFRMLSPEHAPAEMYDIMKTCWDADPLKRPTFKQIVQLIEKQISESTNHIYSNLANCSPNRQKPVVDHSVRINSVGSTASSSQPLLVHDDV
T4 sequence (P36507 whole entry): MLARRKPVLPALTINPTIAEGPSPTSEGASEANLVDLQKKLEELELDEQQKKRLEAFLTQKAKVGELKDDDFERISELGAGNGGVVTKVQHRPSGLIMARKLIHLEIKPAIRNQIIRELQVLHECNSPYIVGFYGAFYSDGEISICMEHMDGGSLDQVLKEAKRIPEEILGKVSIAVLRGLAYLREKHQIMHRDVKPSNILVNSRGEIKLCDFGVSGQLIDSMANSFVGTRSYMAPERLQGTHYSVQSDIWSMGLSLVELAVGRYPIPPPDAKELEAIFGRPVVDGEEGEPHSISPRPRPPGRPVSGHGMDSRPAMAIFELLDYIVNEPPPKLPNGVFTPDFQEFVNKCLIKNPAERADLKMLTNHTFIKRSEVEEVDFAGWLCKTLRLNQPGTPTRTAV
T6 sequence (P51812 68-327 limits assumed): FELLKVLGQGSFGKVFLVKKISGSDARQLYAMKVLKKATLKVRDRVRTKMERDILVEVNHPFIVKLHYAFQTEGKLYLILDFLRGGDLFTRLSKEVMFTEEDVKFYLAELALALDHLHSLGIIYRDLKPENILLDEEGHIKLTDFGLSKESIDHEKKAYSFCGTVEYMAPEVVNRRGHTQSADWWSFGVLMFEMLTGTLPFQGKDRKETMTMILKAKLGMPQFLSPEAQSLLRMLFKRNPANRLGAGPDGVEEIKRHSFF
T8 sequence (P42336 whole entry): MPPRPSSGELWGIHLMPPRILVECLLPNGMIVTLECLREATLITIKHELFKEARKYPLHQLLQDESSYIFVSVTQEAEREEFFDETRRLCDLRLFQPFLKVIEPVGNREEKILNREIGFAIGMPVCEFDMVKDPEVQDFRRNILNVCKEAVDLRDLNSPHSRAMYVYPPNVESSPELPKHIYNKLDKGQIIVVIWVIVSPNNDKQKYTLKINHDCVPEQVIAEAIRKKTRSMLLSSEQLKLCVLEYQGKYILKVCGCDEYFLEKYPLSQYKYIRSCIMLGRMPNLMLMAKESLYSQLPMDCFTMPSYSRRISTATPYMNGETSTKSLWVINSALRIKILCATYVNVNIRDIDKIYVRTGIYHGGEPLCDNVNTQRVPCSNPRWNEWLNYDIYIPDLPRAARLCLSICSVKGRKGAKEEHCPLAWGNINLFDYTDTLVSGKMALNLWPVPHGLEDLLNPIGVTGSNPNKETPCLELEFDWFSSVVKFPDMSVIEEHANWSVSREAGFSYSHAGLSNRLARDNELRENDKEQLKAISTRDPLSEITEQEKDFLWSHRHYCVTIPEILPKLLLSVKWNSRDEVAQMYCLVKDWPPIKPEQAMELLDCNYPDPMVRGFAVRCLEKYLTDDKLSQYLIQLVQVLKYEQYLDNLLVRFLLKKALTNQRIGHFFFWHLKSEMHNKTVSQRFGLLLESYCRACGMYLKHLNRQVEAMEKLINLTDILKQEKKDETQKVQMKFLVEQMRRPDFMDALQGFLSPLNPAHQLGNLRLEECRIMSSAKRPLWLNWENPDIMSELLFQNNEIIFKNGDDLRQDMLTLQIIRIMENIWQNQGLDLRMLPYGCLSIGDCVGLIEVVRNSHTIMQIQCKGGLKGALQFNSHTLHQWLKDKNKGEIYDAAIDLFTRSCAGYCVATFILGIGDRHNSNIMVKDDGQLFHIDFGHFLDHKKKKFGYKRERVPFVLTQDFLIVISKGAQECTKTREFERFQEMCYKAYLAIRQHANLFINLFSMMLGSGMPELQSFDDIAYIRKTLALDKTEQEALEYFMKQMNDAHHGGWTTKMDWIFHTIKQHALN
T1 sequence (Q86UX6 whole entry): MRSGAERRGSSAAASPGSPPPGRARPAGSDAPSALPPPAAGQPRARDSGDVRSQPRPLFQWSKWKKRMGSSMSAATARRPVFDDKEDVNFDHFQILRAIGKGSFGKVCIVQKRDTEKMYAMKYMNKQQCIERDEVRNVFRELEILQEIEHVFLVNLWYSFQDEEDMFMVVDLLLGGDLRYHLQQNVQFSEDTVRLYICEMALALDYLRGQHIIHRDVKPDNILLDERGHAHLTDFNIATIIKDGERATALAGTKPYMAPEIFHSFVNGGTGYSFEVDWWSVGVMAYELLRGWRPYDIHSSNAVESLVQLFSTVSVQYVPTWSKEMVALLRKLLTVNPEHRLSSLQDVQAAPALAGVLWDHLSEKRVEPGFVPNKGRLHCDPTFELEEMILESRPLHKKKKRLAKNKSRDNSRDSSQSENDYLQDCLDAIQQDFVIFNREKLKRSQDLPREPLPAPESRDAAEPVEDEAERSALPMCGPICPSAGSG

Consider `CC(C)Cn1ncc2cc(Cc3ccc(F)cc3F)c(C(=O)NCCN(C)C)cc21` [Compound 94, 5-(2,4-Difluorobenzyl)-N-(2-(dimethylamino)ethyl)-1-isobutyl-1H-indazole-6-carboxamide], for which the “RA @ 1000nM” value on YANK3 stood at 100%; at PRKCE, 80%; on FLT3 it was 100%; at MEK2 it was 86%; on KIT it was 100%; in experiment [1], 86%. Moreover, the “RA @ 1000nM” value on EGFR(L858R) is on record as 100%; on PIK3CA, 77%. Besides, the “RA @ 10000nM” value is on record as 100% at YANK3; 80% at PRKCE; 90% at FLT3; 80% at MEK2; 100% on KIT; 65% in experiment [1]. The “RA @ 10000nM” value on EGFR(L858R) was 66%; at PIK3CA, 95%.
With `CN(C)CCNC(=O)c1cc2c(cnn2CC2CCCCC2)cc1Cc1ccc(F)cc1F` [Compound 95, 1-(Cyclohexylmethyl)-5-(2,4-difluorobenzyl)-N-(2-(dimethylamino)ethyl)-1H-indazole-6-carboxamide], the “RA @ 1000nM” value turned out to be 100% at YANK3; 79% on PRKCE; 100% at FLT3; 95% at MEK2; 100% at KIT; 94% in experiment [1]. Besides, the “RA @ 1000nM” value at EGFR(L858R) and at PIK3CA was 100% each time. Moreover, the “RA @ 10000nM” value on YANK3 turned out to be 100%; at PRKCE, 76%; at FLT3 it was 100%; on MEK2 it was 100%; at KIT, 100%; in experiment [1], 94%. Further, the “RA @ 10000nM” value on EGFR(L858R) and on PIK3CA was 100% throughout.
